Assay: Radiochemical purity by HPLC over time after radiolabelling
Format: physicochemical
Method: Table 1 to Table 5 show the results of various radiolabelling experiments on radiochemical purity and the chelation yield. The radiolabelling experiments in the tables are carried out as described in: • Example 1 for when the gallium-68 source is GE Liquid target generator and EZAG GalliaPharm generator; • Example 2 for when the gallium-68 source is IRE Galli Eo generator; • Example 3 for when the gallium-68 source is GE solid target generator;
However, the experiments were carried out with the amount of ascorbic acid as indicated in the Tables 1 to 5, and the activity as indicated in the Tables 1 to 5. Radiochemical purities were measured at various times (T0, T1, T4, T6) after the radiolabelled experiments have been conducted.
The kits of Example 1, Example 2 or Example 3, with amounts of ascorbic acid as set out in Table 7 were used in the experiments for the ascorbic acid bracketing matrix. Three strengths of [^68Ga]Ga-PSMA-11 will be tested, i.e. 50 mCi/ml, 7 mCi/ml and 1 mCi/ml. Radiochemical purity was determined at different time points (TO, T1, T4 or T6), as set out in Table 7.

O=C([O-])CN(CCN(CC(=O)[O-])Cc1cc(CCC(=O)NCCCCCC(=O)NCCCC[C@H](NC(=O)N[C@@H](CCC(=O)O)C(=O)O)C(=O)O)ccc1[O-])Cc1cc(CCC(=O)O)ccc1[O-].[68Ga+3].[OH3+] [[^68Ga]PSMA-11, gallium-68 radiolabelled Glu-urea-Lys-HBED-CC (gozetotide or PSMA-11)]
Radiochemical Purity (HPLC) Ga-68 PSMA-11 (%) (25 mg ascorbic acid, 46.0-46.1 mCi, 4.38-4.39 mCi/mL, EZAG GalliaPharm, average of 2, T4 (4 h)): 100% | Radiochemical Purity (HPLC) Ga-68 PSMA-11 (%) (25 mg ascorbic acid, 46.0-46.1 mCi, 4.38-4.39 mCi/mL, EZAG GalliaPharm, n=2, T0): C (C = all results conform to specifications) | Radiochemical Purity (HPLC) Ga-68 PSMA-11 (%) (25 mg ascorbic acid, 46.0-46.1 mCi, 4.38-4.39 mCi/mL, EZAG GalliaPharm, n=2, T4 (4 h)): C (C = all results conform to specifications) | Radiochemical Purity (HPLC) Ga-68 PSMA-11 (%) (bracketing ~1 mCi/mL, 18.75 mg ascorbic acid, 8.9-11.5 mCi, 0.85-1.09 mCi/mL, IRE Galli Eo, average of 2, T0): 100% | Radiochemical Purity (HPLC) Ga-68 PSMA-11 (%) (bracketing ~1 mCi/mL, 18.75 mg ascorbic acid, 8.9-11.5 mCi, 0.85-1.09 mCi/mL, IRE Galli Eo, average of 2, T1 (1 h)): 100% | Radiochemical Purity (HPLC) Ga-68 PSMA-11 (%) (bracketing ~1 mCi/mL, 25 mg ascorbic acid, 8.8-12.7 mCi, 0.84-1.21 mCi/mL, 2 × IRE Galli Eo, average of 2, T0): 99% | Radiochemical Purity (HPLC) Ga-68 PSMA-11 (%) (bracketing ~1 mCi/mL, 25 mg ascorbic acid, 8.8-12.7 mCi, 0.84-1.21 mCi/mL, 2 × IRE Galli Eo, average of 2, T1 (1 h)): 100% | Radiochemical Purity (HPLC) Ga-68 PSMA-11 (%) (bracketing ~1 mCi/mL, 31.25 mg ascorbic acid, 15.2-26.9 mCi, 1.44-2.54 mCi/mL, EZAG GalliaPharm, average of 2, T0): 100% | Radiochemical Purity (HPLC) Ga-68 PSMA-11 (%) (bracketing ~1 mCi/mL, 31.25 mg ascorbic acid, 15.2-26.9 mCi, 1.44-2.54 mCi/mL, EZAG GalliaPharm, average of 2, T1 (1 h)): 100% | Radiochemical Purity (HPLC) Ga-68 PSMA-11 (%) (bracketing ~7 mCi/mL, 18.75 mg ascorbic acid, 51.0-58.0 mCi, 5.55-6.5 mCi/mL, IRE Galli Eo, average of 2, T0): 100% | Radiochemical Purity (HPLC) Ga-68 PSMA-11 (%) (bracketing ~7 mCi/mL, 18.75 mg ascorbic acid, 51.0-58.0 mCi, 5.55-6.5 mCi/mL, IRE Galli Eo, average of 2, T4 (4 h)): 100% | Radiochemical Purity (HPLC) Ga-68 PSMA-11 (%) (bracketing ~7 mCi/mL, 25 mg ascorbic acid, 51.6-74.4 mCi, 4.56-6.92 mCi/mL, 3 × GE Liquid Target, 3 × IRE Galli Eo, 3 × EZAG GalliaPharm, average of 9, T0): 100% | Radiochemical Purity (HPLC) Ga-68 PSMA-11 (%) (bracketing ~7 mCi/mL, 25 mg ascorbic acid, 51.6-74.4 mCi, 4.56-6.92 mCi/mL, 3 × GE Liquid Target, 3 × IRE Galli Eo, 3 × EZAG GalliaPharm, average of 9, T4 (4 h)): 100% | Radiochemical Purity (HPLC) Ga-68 PSMA-11 (%) (bracketing ~7 mCi/mL, 31.25 mg ascorbic acid, 61.5-62.0 mCi, 5.85-5.88 mCi/mL, EZAG GalliaPharm, average of 2, T0): 100% | Radiochemical Purity (HPLC) Ga-68 PSMA-11 (%) (bracketing ~7 mCi/mL, 31.25 mg ascorbic acid, 61.5-62.0 mCi, 5.85-5.88 mCi/mL, EZAG GalliaPharm, average of 2, T4 (4 h)): 100% | Radiochemical Purity (HPLC) Ga-68 PSMA-11 (%) (bracketing ~50 mCi/mL, 20 mg ascorbic acid, 514-544 mCi, 48.3-51.9 mCi/mL, GE Solid Target, average of 2, T0): 100% | Radiochemical Purity (HPLC) Ga-68 PSMA-11 (%) (bracketing ~50 mCi/mL, 20 mg ascorbic acid, 514-544 mCi, 48.3-51.9 mCi/mL, GE Solid Target, average of 2, T6 (6 h)): 100% | Radiochemical Purity (HPLC) Ga-68 PSMA-11 (%) (bracketing ~50 mCi/mL, 25 mg ascorbic acid, 537-551 mCi, 50.2-51.6 mCi/mL, GE Solid Target, average of 3, T0): 100% | Radiochemical Purity (HPLC) Ga-68 PSMA-11 (%) (bracketing ~50 mCi/mL, 25 mg ascorbic acid, 537-551 mCi, 50.2-51.6 mCi/mL, GE Solid Target, average of 3, T6 (6 h)): 100% | Radiochemical Purity (HPLC) Ga-68 PSMA-11 (%) (bracketing ~50 mCi/mL, 31.25 mg ascorbic acid, 500-544 mCi, 48.1-51.7 mCi/mL, GE Solid Target, average of 2, T0): 100% | Radiochemical Purity (HPLC) Ga-68 PSMA-11 (%) (bracketing ~50 mCi/mL, 31.25 mg ascorbic acid, 500-544 mCi, 48.1-51.7 mCi/mL, GE Solid Target, average of 2, T6 (6 h)): 100% | Radiochemical Purity (HPLC) Ga-68 PSMA-11 (%) (validation batches, 25 mg ascorbic acid, 51.6-62.7 mCi, 4.56-5.88 mCi/mL, IRE Galli Eo, average of 3, T0): 100% | Radiochemical Purity (HPLC) Ga-68 PSMA-11 (%) (validation batches, 25 mg ascorbic acid, 51.6-62.7 mCi, 4.56-5.88 mCi/mL, IRE Galli Eo, average of 3, T4 (4 h)): 100% | Radiochemical Purity (HPLC) Ga-68 PSMA-11 (%) (validation batches, 25 mg ascorbic acid, 51.6-62.7 mCi, 4.56-5.88 mCi/mL, IRE Galli Eo, n=3, T0): C (C = all results conform to specifications) | Radiochemical Purity (HPLC) Ga-68 PSMA-11 (%) (validation batches, 25 mg ascorbic acid, 51.6-62.7 mCi, 4.56-5.88 mCi/mL, IRE Galli Eo, n=3, T4 (4 h)): C (C = all results conform to specifications) | Radiochemical Purity (HPLC) Ga-68 PSMA-11 (%) (validation batches, 25 mg ascorbic acid, 53.3-74.4 mCi, 5.03-6.92 mCi/mL, GE Liquid target, average of 3, T0): 99% | Radiochemical Purity (HPLC) Ga-68 PSMA-11 (%) (validation batches, 25 mg ascorbic acid, 53.3-74.4 mCi, 5.03-6.92 mCi/mL, GE Liquid target, average of 3, T4 (4 h)): 100% | Radiochemical Purity (HPLC) Ga-68 PSMA-11 (%) (validation batches, 25 mg ascorbic acid, 53.3-74.4 mCi, 5.03-6.92 mCi/mL, GE Liquid target, n=3, T0): C (C = all results conform to specifications) | Radiochemical Purity (HPLC) Ga-68 PSMA-11 (%) (validation batches, 25 mg ascorbic acid, 53.3-74.4 mCi, 5.03-6.92 mCi/mL, GE Liquid target, n=3, T4 (4 h)): C (C = all results conform to specifications)
